Results: patent US20250188078A1, “SMALL MOLECULE INHIBITORS OF THE CRL4 UBIQUITIN LIGASE” (Cornell University, priority 2022, published 2025)

Assays:
[1] = system: CUL4A^high MDA-MB-468 breast cancer cells; assay: Cell killing in CUL4-high MDA-MB-468 cells (CellTiter Glo); format: cell-based; settings: Homo sapiens, 192 h; MDA-MB-468 cells, 8 days treatment; read-out: EC50 CUL4-High Cells (cell killing)
Protocol: EC50 refers to concentration of compound that induces 50% killing of CUL4A^high MDA-MB-468 cells (see Table 1, column 6). CUL4A^high MDA-MB-468 breast cancer cells were seeded in 96 well plates. After 24 hours, cells were treated with DMSO or compounds. Change fresh medium and compounds. After 8 days treatment, cell viability was examined by using CellTiter Glo kit (Promega #7570) following the manufacturer's guidelines (https://www.promega.com/-/media/files/resources/protocols/technicalbulletins/0/celltiter-glo-luminescent-cell-viability-assay protocol.pdf?rev=0d95c232094b41daa06d0c110d1d916f&sc_lang=en, hereby incorporated by reference in its entirety for all purposes). EC50 concentration was calculated by Prism 8 XY analysis nonlinear regression (curve fit-Log(inhibitor) vs response). Lower EC50 indicates high cell killing potential in CUL4^high MDA-MB-468 cells.
(§1) CUL4A^high MDA-MB-468, CUL4^low (T47D), and MCF7 breast cancer cells were seeded in 96 well plates separately. Cells were treated with DMSO, or from 0 to 20 μM compound respectively. Replace with fresh medium and compounds every 48 hours. After 8 days treatment, cell viability was examined by CellTiter Glo kit (Promega #7570). First, transfer the appropriate volume (10 ml for Cat. #G7570) of CellTiter-Glo® Buffer into the amber bottle containing CellTiter-Glo® Substrate to reconstitute the lyophilized enzyme/substrate mixture. This forms the CellTiter-Glo® Reagent. Second, add CellTiter-Glo® Reagent in an equal volume (100 μl per well for 96-well plates) to all wells. Mix contents for 2 minutes on an orbital shaker to induce cell lysis. Incubate at room temperature for 15 minutes to stabilize luminescent signal. Then record luminescence. EC50 concentration was calculated by Prism 8 XY analysis nonlinear regression (curve fit-Log(inhibitor) vs response).

[2] = Dynamic light scattering (DLS) solubility assay; format: physicochemical; settings: normalized intensity ratio of 25 μM compound vs DMSO, in PBS
Protocol: Dynamic light scattering (DLS) (see Table 1, column 3) is a tool for studying the diffusion behavior of macromolecules in solution. To profile compound solubility, DLS assay was developed for measuring aggregation of small molecule compounds. Compound stock solution was prepared in DMSO. Dilution series were made for each compound in DMSO to ensure a final 1× assay concentration range of 200 μM to 0.78 μM. For example, if the final DMSO concentration was 1%, compounds were prepared at 100× concentrations ranging from […] to 78 μM. Dilute compounds in PBS solution to final concentration. Place 60 μl/well in 96 well plates and 3 replicates for each sample. Data were collected using a DynaPro Plate Reader III (WYATT Technologies, Inc., USA). The instrument was adjusted to measure the optimal light scattering intensity according to the manufacturer's instructions. […] The ratio over 2 means (−) insoluble. The ratio below 2 means (+) soluble and around 2 means (+/−).

[3] = target: CUL4A-DDB1-BPB interaction (Homo sapiens (Human), UniProt Q16531); assay: AlphaLISA in vitro binding assay, CUL4A and DDB1-BPB binding; settings: inhibition of CUL4A and DDB1-BPB binding
CUL4A-DDB1-BPB interaction, sequence (Q16531 403-706): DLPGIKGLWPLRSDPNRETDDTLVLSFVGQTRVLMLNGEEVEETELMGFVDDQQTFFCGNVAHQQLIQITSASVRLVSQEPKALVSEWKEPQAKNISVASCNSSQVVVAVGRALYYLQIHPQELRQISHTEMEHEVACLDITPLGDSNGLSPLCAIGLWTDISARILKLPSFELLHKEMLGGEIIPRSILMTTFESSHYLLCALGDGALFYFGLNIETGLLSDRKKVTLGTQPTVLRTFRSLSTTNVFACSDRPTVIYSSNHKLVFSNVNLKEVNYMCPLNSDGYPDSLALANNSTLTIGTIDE
From the text: AlphaLISA IC50 (see Table 1, column 4) means the half maximal inhibitory concentration of compound that inhibits CUL4A and DDB1-BPB binding. Our lab established and optimized 384 well-based AlphaLISA in vitro binding assay for testing small molecule inhibitory activity. Small molecule libraries were screened for compounds that disrupt CUL4A-DDB1-BPB interaction using AlphaScreen detection beads (PerkinElmer, #AL112C and #6765300) following the manufacturer's protocol (https://www.perkinelmer.com/PDFs/downloads/GDE-Alphatech.pdf, hereby incorporated by reference in its entirety for all purposes). The 384-well assay plates (Greiner Bio-one, #781075) were read in Synergy Neo2 Hybrid Multi-Mode Reader (BioTek). The IC50 was calculated by Prism 8 XY analysis nonlinear regression (curve fit-Log(inhibitor) vs response).

[4] = system: UV-induced CUL4-dependent DDB2 degradation in MEF-F-DDB2 cells; assay: Cell-based assay for inhibition of UV-induced CUL4-dependent DDB2 degradation; set-up: key: (+) means that the normalized DDB2/α-tubulin ratio is higher in the compound treated sample than DMSO treated sample; (−) means that no change happens between compound treated sample with control sample; settings: DDB2/α-tubulin by Western blot
Protocol: Cell-based assay for inhibition of UV-induced CUL4-dependent DDB2 degradation by small molecule CUL4 inhibitors (see Table 1, column 5). Briefly, MEF-F-DDB2 cells were seeded in 6-well plates. DMSO or indicated concentrations of compounds were added to MEF-F-DDB2 cells growing in serum-free medium. MEF-F-DDB2 cells were washed once with PBS and subsequently irradiated with a Philips TUV lamp (predominantly 254 nm) at a dose rate of 0.2 W/m^2. DMSO or compounds were added to MEF-F-DDB2 cells, and then cells were harvested. The cells were lysed, and equal amounts of proteins were resolved on SDS-PAGE gel and Flag-DDB2 levels were detected using anti-DDB2 (D4C4) rabbit antibody (Cell signaling, #5416S). α-tubulin (Proteintech, #66031-1-Ig) was used as an internal loading control. (+) means that the normalized DDB2/α-tubulin ratio is higher in the compound treated sample than DMSO treated sample. (−) means that no change happens between compound treated sample with control sample.

[5] = system: CUL4A^low T47D breast cancer cells; assay: Cell killing in CUL4-low T47D cells (CellTiter Glo); format: cell-based; settings: Homo sapiens, 192 h; T47D cells, 8 days treatment; read-out: EC50 CUL4-Low Cells (cell killing)
Protocol: EC50 indicates compound concentration can cause 50% cell killing in CUL4° ^w T47D cells (see Table 1, column 7). CUL4A^low T47D breast cancer cells were seeded in 96 well plate. […] Change fresh medium and compounds every 48 hours. After 8 days treatment, cell viability was examined by using CellTiter Glo kit (Promega #7570) following the manufacturer's guidelines (https://www.promega.com/-/media/files/resources/protocols/technical-bulletins/0/celltiter-glo-luminescent-cell-viability-assay-protocol.pdf?rev=0d95c232094b41daa06d0c110d1d916f&sc_lang=en, hereby incorporated by reference in its entirety for all purposes). EC50 concentration was calculated by Prism 8 XY analysis nonlinear regression (curve fit-Log(inhibitor) vs response). EC50 indicates cell killing potential in CUL4 low T47D cell line and the EC50 difference between CUL4^high and CUL4^low cells indicates the small molecule cause specific cell killing.
as §1, with “Cells were treated with DMSO, or from 0 to 20 μM compound respectively.” left out

Row | SMILES | EC50 [1] | Solubility (DLS Assay) [2] | IC50 [3] | AlphaLisa IC50 [3] | Degradation Inhibition (inhibition of UV-induced DDB2 degradation) [4] | EC50 [5]
1 | CN(c1ccc(-c2nc(C(=O)O)cc3c2[nH]c2cc(F)c(F)cc23)cc1)S(=O)(=O)c1ccccc1 [PA1-7, 6,7-difluoro-1-(4-(N-methylphenylsulfonamido)phenyl)-9H-pyrido[3,4-b]indole-3-carboxylic acid] | 8.65 µM | -(insoluble) | 0.127 µM |  |  | 
2 | COC(=O)c1cc2c([nH]c3cc(C#N)ccc32)c(-c2ccc(N(C)S(=O)(=O)c3ccccc3)cc2)n1 [PA1-9 ESTER, methyl 7-cyano-1-(4-(N-methylphenylsulfonamido)phenyl)-9H-pyrido[3,4-b]indole-3-carboxylate] |  | -(insoluble) |  | Neg |  | 
3 | CN(c1ccc(-c2nc(C(=O)O)cc3c2[nH]c2cc(C#N)ccc23)cc1)S(=O)(=O)c1ccccc1 [PA1-9, 7-cyano-1-(4-(N-methylphenylsulfonamido)phenyl)-9H-pyrido[3,4-b]indole-3-carboxylic acid] | 7.87 µM | -(insoluble) | 0.085 µM |  | + | 
4 | O=C(O)c1cc2c([nH]c3cc(F)ccc32)c(-c2ccc(OCc3ccccc3)cc2)n1 [PA1-11, 1-(4-benzyloxyphenyl)-7-fluoro-9H-pyrido[3,4-b]indole-3-carboxylic acid] | 9.9 µM | -(insoluble) | 5.84 µM |  | − | 
5 | O=C(O)c1cc2c([nH]c3cc(F)ccc32)c(-c2ccc(OCc3ccccn3)cc2)n1 [PA1-11H, 7-fluoro-1-(4-(pyridin-2-ylmethoxy)phenyl)-9H-pyrido[3,4-b]indole-3-carboxylic acid] |  | -(insoluble) |  |  | − | 
6 | CN(c1ccc(-c2nc(C(=O)O)cc3c2[nH]c2cc(F)ccc23)c(F)c1)S(=O)(=O)c1ccccc1 [PA1-12, 1-[4-[benzenesulfonyl(methyl)amino]-2-fluoro-phenyl]-7-fluoro-9H-pyrido[3,4-b]indole-3-carboxylic acid] | 7.37 µM | -(insoluble) | 0.75 µM |  | + | 
7 | CN1CCN(S(=O)(=O)N(C)c2ccc(-c3nc(C(=O)O)cc4c3[nH]c3cc(F)ccc34)cc2)CC1 [PA1-13A-3, 1-(4-(N,4-dimethylpiperazine-1-sulfonamido)phenyl)-7-fluoro-9H-pyrido[3,4-b]indole-3-carboxylic acid] | 7.25 µM | -(insoluble) | 0.45 µM |  | − | 
8 | COC(=O)c1cc2c([nH]c3cc(F)cc(C)c32)c(-c2ccc(N(C)S(=O)(=O)c3ccccc3)cc2)n1 [PA1-14 ESTER, methyl 1-[4-[benzenesulfonyl(methyl)amino]phenyl]-7-fluoro-5-methyl-9H-pyrido[3,4-b]indole-3-carboxylate] |  | -(insoluble) |  | Neg | − | 
9 | Cc1ccc(-c2nc(C(=O)O)cc3c2[nH]c2ccccc23)cc1 [PA2] |  | -(insoluble) | 3.43 ± 1.57 µM |  | + | 
10 | O=C(O)c1cc2c([nH]c3ccccc32)c(-c2ccc(F)cc2)n1 [PA3] |  | +/− | 1.41 ± 0.31 µM |  | + | 
11 | O=C(O)c1cc2c([nH]c3ccccc32)c(-c2cccc(F)c2)n1 [PA5] |  | -(insoluble) | 2.34 ± 0.77 µM |  |  | 
12 | Cc1cccc(-c2nc(C(=O)O)cc3c2[nH]c2ccccc23)c1 [PA7] |  | -(insoluble) | 10.2 ± 3.33 µM |  |  | 
13 | COc1cccc(-c2nc(C(=O)O)cc3c2[nH]c2ccccc23)c1 [PA8] |  | -(insoluble) | 7.75 ± 1.82 µM |  |  | 
14 | NC(=O)c1cc2c([nH]c3ccccc32)c(-c2ccc([N+](=O)[O-])cc2)n1 [PA9, 1-(4-nitrophenyl)-9H-pyrido[3,4-b]indole-3-carboxamide] |  | -(insoluble) |  | Neg | + | 
15 | N#Cc1ccc(-c2nc(C(=O)O)cc3c2[nH]c2ccccc23)cc1 [PA19] |  | -(insoluble) | 2.01 ± 0.44 µM |  | + | 
16 | O=C(O)c1cc2c([nH]c3ccccc32)c(-c2cc(F)c(F)c(F)c2)n1 [PA33] |  | -(insoluble) | 2 ± 0.38 µM |  |  | 
17 | N#Cc1cc2c([nH]c3ccccc32)c(-c2ccc([N+](=O)[O-])cc2)n1 [PA42, 1-(4-nitrophenyl)-9H-pyrido[3,4-b]indole-3-carbonitrile] | 73.1 µM |  |  | Neg |  | > 100 µM
18 | CS(=O)(=O)c1ccc(-c2nc(C(=O)O)cc3c2[nH]c2ccc(F)cc23)cc1 [PA71] |  | -(insoluble) | 0.36 ± 0.04 µM |  | − | 
19 | COc1ccc2[nH]c3c(-c4ccc(S(C)(=O)=O)cc4)nc(C(=O)O)cc3c2c1 [PA74] |  | -(insoluble) | 1.83 ± 0.09 µM |  | + | 
